Source: patent US11952353B2, “STAT3 transcription factor inhibitors and methods of using the same” (The Regents of the University of Colorado, A Body Corporate, priority 2018, dated 2024)
Each block holds one compound with its values, some of them ahead of it.

What was measured:
[1] = target: T1, full-length, GST-tagged human STAT3 protein (Homo sapiens, UniProt P40763); test: Recombinant STAT3 ELISA (STAT3/DNA binding); assay type: biochemical; details: 2 μM; for mean value, % of STAT3 only control: 1 hour incubation
T1 construct: full-length, GST-tagged human STAT3 protein and various concentrations of compounds
T1 sequence (P40763 whole entry): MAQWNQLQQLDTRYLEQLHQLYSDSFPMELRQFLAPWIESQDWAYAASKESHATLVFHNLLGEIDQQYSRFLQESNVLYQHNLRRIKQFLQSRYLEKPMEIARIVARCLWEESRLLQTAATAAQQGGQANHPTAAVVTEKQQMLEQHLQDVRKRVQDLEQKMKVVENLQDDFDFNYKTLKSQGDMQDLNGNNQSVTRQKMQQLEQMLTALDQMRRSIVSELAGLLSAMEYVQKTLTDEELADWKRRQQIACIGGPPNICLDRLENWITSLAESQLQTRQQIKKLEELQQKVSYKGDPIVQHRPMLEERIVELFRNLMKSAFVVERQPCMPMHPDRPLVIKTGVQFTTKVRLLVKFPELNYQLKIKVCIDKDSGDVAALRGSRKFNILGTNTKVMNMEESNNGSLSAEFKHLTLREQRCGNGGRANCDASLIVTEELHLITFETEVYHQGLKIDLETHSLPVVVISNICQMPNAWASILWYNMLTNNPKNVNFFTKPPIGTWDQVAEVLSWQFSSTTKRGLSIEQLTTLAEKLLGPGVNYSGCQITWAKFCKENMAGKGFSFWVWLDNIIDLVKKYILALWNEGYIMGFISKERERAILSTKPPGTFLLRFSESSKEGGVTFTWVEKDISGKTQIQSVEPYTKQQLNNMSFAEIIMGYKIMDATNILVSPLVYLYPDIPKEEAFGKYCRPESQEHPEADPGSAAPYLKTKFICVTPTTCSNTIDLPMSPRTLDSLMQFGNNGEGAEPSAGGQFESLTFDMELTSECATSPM
Procedure: Measurement of STAT3 binding to DNA was performed using a TransAM STAT3 ELISA kit (Active Motif) and according to the previously used protocol. Briefly, full-length, GST-tagged human STAT3 protein and various concentrations of compounds to be evaluated or niclosamide were incubated in Complete Lysis Buffer at a final volume of 20 μL containing 0.1 μg recombinant protein for 1 hour with mild agitation. Following incubation with STAT3 inhibitors, samples were added to corresponding ELISA wells with 30 μL of Complete Binding Buffer and inhibition of STAT3 protein binding to the DNA consensus sequence was determined. Data was reported as percent of control.

STAT3 = target: T2, STAT3 (Homo sapiens, UniProt P40763); test: Cell-based STAT3 DNA-binding ELISA; details: HeLa; for reduction of STAT3/DNA-binding: 24 h, 1 μM; for EC50: 24 h dose response
T2 construct: endogenous in cells; host or cells: HeLa
T2 sequence (P40763 whole entry): as above
Procedure: Nuclear extracts were prepared using a nuclear extraction kit (Signosis) according to product directions. Briefly, 100 mm dishes of cells were washed with 1×PBS and then 1 mL of 1× Buffer I was added and dishes were rocked on ice for 10 minutes. Cells were released from the dish using a sterile scraper and centrifuged at 1200 rpm for 5 minutes at 4° C. The supernatant was discarded and the pellets were resuspended in 1× Buffer II and shaken on ice for 2 hours. Samples were centrifuged at 1200 rpm for 5 minutes at 4° C. and the resulting supernatants containing the nuclear extracts were placed in new microcentrifuge tubes. Protein concentrations of samples were determined via Bradford assay.
HeLa cells were plated at 1 million cells per 100 mm dish and incubated for approximately 72 hours, resulting in serum-starved confluent plates. Plates were then washed with PBS and fresh media was added containing concentrations of compounds to be evaluated or niclosamide for 24 hours. For single concentrations of compounds, cells were treated with 1 μM of compounds, as derived from 24 hour MTT assay EC50 value for niclosamide. Dose-responses of niclosamide, compound 8, and compound 17 were similarly prepared at concentrations ranging from 2-0.0156 μM. Following incubation with compounds, cellular nuclear extracts were prepared.
Measurement of STAT3 binding to DNA was performed using the TransAM STAT3 ELISA kit. Sample wells contained 20 μg of nuclear extracts from treated HeLa cells diluted in 20 μL of Complete Lysis Buffer. The ELISA was then performed as described in the recombinant ELISA section. Data was normalized and reported as percent of control.

HeLa cells [2] = test: Caspase 3/7 assay (apoptosis); assay type: cell-based; details: 24 and 48 hours
Procedure: The effect of STAT3 inhibitor on caspase activity was evaluated using a Caspase-Glo 3/7 kit (Promega) according to product directions. Briefly, HeLa cells were plated in white-walled, clear bottom 96-well plates at a density of 5,000 cells/well in 100 μL of media and were incubated for 24 hours. Media was then aspirated and replaced with 100 μL of media containing 1 μM or 10 μM of STAT3 inhibitor. Cells were exposed to compounds for 24 and 48 hours, following which plates were allowed to equilibrate to room temperature. Reconstituted caspase reagent was added to sample wells in a 1:1 ratio, mixed, and incubated in the dark for 1 hour. Luminescence was read using a microplate reader.

HeLa cells [3] = test: MTT cell viability assay; assay type: cell-based; details: 24 h; for EC50: Homo sapiens
Procedure: HeLa cells were plated in 96-well plates at a density of 5,000 cells/well in 100 μL of media and were incubated for 24 hours. Media was then aspirated and replaced with 100 μL of media containing various concentrations of compounds ranging from 500 μM-0.0019 μM. Cells were exposed to compounds for 24 hours, following which the media was aspirated and 50 μL MTT solution diluted in media was added to each well at a final concentration of 1 mg/mL. MTT was exposed to cells for 4 hours, aspirated, and then 100 μL of DMSO was added to each well. Plates were agitated for 10 minutes prior to reading absorbance at 540 nm in a microplate reader. Data was normalized and reported as percent of control.

SH2 domain of STAT3 [4] = target: T3, SH2 domain of STAT3 (Homo sapiens, UniProt P40763); details: concentrations above 10 μM; cited from earlier work
T3 construct: 100 nM of full length GST-tagged human STAT3 protein (Abcam); purchased Abcam
T3 sequence (P40763 whole entry, the tested form may be a part): as the sequence (P40763 whole entry) above

SH2 domain of STAT3 [5] = target: T3, SH2 domain of STAT3; test: Fluorescence polarization (FP) assay; assay type: binding; details: 25 μM
Procedure: FP assay was conducted as previously reported (Steffanie L. Furtek, S. L., et al., Evaluation of quantitative assays for the identification of direct signal transducer and activator of transcription 3 (STAT3) inhibitors (November 2016) Oncotarget 7(47): 77998-78008). Briefly, assay buffer (10 mM HEPES, pH 7.5, 50 mM NaCl, 1 mM EDTA, 2 mM DTT, and 0.01% Triton-X100), 100 nM of full length GST-tagged human STAT3 protein (Abcam), and varying concentrations of compounds were incubated for 1 hour at room temperature with mild agitation in 96-well half area black plates (Corning). Fluorescent peptide 5-FAM-G(pTyr)LPQTV-CONH2 (Genscript) was added to each assay well at a concentration of 10 nM. Final well volumes were 30 μL. Following incubation with fluorescent peptide for 30 minutes at room temperature with mild agitation, plates were examined using FP Fluorescein Dual module with excitation filter FITC FP 480 and emission filter FITC FP P-pol535 and S-pol535. Data was expressed as percent control using the equation % C=(mPdrug−mPfree)/(mPSTAT3−mPfree)*100 where mP is the value for FP measurement.

[6] = tested on: Leukemia Stem cells (LSCs); test: Leukemia stem cell viability (apoptosis markers, flow cytometry); assay type: cell-based; details: 24 hours
Procedure: (§1) Leukemia Stem cells (LSCs) were incubated with compound 17 (STAT3i) for 24 hours and cell viability was measured. […] Primary human AML cells were treated with compound 17 (STAT3i). The cells were then cultured on methylcellulose and colony formation was measured. […] STAT3 was knocked down in primary human AML samples using shRNA methods (shSTAT3).

Primary AML cells = test: Engraftment of treated primary AML cells transplanted into immunodeficient mice; assay type: in vivo; details: then transplanted into immunodeficient mice
Procedure: Primary AML cells were treated with compound 17 (STAT3i) and transplanted into immunodeficient mice.

[7] = tested on: Leukemia Stem cells (LSCs); test: Seahorse assay of oxygen consumption; assay type: cell-based; details: four hours incubation
Procedure: (§2) Leukemia stem cells (LSCs) were incubated with compound 17 (STAT3i) for four hours. Seahorse assays were then used to measure oxygen consumption. […] Flow cytometry analysis verified that there was no cell death at the time of RNAseq analysis. FIG. 19 is a chart showing the expression changes of various genes involved in OXPHOS after incubation with compound 17. FIG. 20 is an image of western blot analysis of the expression of electron transport chain genes after incubating cells with compound 17.

[8] = tested on: Cord-blood derived CD34+ normal hematopoietic stem cells; test: Colony formation of normal hematopoietic stem cells; assay type: cell-based
Procedure: (§3) Cord-blood derived CD34+ normal hematopoietic stem cells were treated with compound 17 (STAT3i).

Primary human AML cells = test: Colony formation on methylcellulose; assay type: cell-based
Procedure: as §1

[9] = tested on: Cord-blood derived CD34+ normal hematopoietic stem cells; test: Viability of normal hematopoietic stem cells; assay type: cell-based
Procedure: as §3

Primary AML samples = test: Glutamine flux, ROS and western blot in primary AML samples; assay type: cell-based
Procedure: Primary AML samples were incubated with heavy labeled glutamine in flux experiments aimed at measuring TCA cycle metabolites. […] FIG. 22 is a graph showing that reactive oxygen species (ROS) is increased in AML cells that were treated with compound 17 (STAT3i).

[10] = tested on: Leukemia Stem cells (LSCs); test: RNAseq, qPCR and western blot expression analysis in LSCs; assay type: cell-based
Procedure: as §2
Leukemia stem cells (LSCs) were incubated with compound 17 (STAT3i) and RNAseq analysis was subsequently performed. […] Knockdown of Myc in LSCs using siRNA leads to a subsequent downregulation of the glutamine receptor SLC1A5 and a decrease in OXPHOS.

reduction of recombinant STAT3/DNA-binding relative to niclosamide [1]: performed worse than niclosamide | mean value, % of STAT3 only control [1]: 80%
Compound: O=C(Nc1ccccc1Cl)c1cc(Cl)ccc1O [Compound 3, 5-Chloro-N-(2-chlorophenyl)-2-hydroxybenzamide]

reduction of STAT3/DNA-binding (STAT3): approx. 80% | EC50 (STAT3): 239 ± 39 nM | EC50 (HeLa cells [3]): 1150 ± 380 nM | reduction of recombinant STAT3/DNA-binding relative to niclosamide [1]: means less than or equal to niclosamide
Compound: CN(C(=O)c1cc(Cl)ccc1O)c1ccc([N+](=O)[O-])cc1Cl [Compound 8, 5-Chloro-N-(2-chloro-4-nitrophenyl)-2-hydroxy-N-methylbenzamide]
induction of apoptosis (HeLa cells [2]; 10 μM): time-dependent increase in apoptosis

Compound: S3I-1757 [Compound S3I-1757]
inhibition of fluorescent peptide binding (SH2 domain of STAT3 [4]): complete inhibition

reduction of recombinant STAT3/DNA-binding relative to niclosamide [1]: means less than or equal to niclosamide
Compound: O=C(Nc1ccc([N+](=O)[O-])cc1Cl)c1cc(Cl)ccc1Cl [Compound 18, 2,5-Dichloro-N-(2-chloro-4-nitrophenyl)benzamide]

affinity for the SH2 domain (SH2 domain of STAT3 [5]): slight affinity for the SH2 domain
Compound: Nc1ccc(NC(=O)c2cc(N)ccc2O)c(Cl)c1 [Compound 10, 5-Amino-N-(4-amino-2-chlorophenyl)-2-hydroxybenzamide]

reduction of STAT3/DNA-binding (STAT3): approx. 80% | EC50 (STAT3): 179 ± 28 nM | EC50 (HeLa cells [3]): 1000 nM
Compound: O=C(Nc1ccc([N+](=O)[O-])cc1Cl)c1cc(Cl)ccc1O [niclosamide, reference compound]
induction of apoptosis (HeLa cells [2]; 1 μM): only a slight increase in apoptosis | induction of apoptosis (HeLa cells [2]; 10 μM): twice as much apoptosis

reduction of STAT3/DNA-binding (STAT3): approx. 80% | EC50 (STAT3): 59 ± 11 nM | colony formation of CD34+ normal hematopoietic stem cells [8]: not affected | EC50 (HeLa cells [3]): 315 ± 70 nM | reduction of recombinant STAT3/DNA-binding relative to niclosamide [1]: means less than or equal to niclosamide
Compound: O=C(Nc1ccc([N+](=O)[O-])cc1Cl)c1cc(Cl)c(-c2ccco2)cc1O [Compound 17, 5-Chloro-N-(2-chloro-4-nitrophenyl)-4-(furan-2-yl)-2-hydroxybenzamide]
cell viability of LSCs [6]: significant cell death | engraftment of primary AML cells (Primary AML cells): decreased engraftment | oxygen consumption [7]: decrease in oxygen consumption | induction of apoptosis (HeLa cells [2]; 1 μM): time-dependent increase in apoptosis | colony formation of primary human AML cells (Primary human AML cells): significant decrease in colony formation | viability of CD34+ normal hematopoietic stem cells [9]: not affected | reactive oxygen species (ROS) (Primary AML samples; AML cells): increased | TCA cycle metabolites (Primary AML samples; heavy labeled glutamine flux): decrease in TCA cycle metabolites | SLCA15 expression (Primary AML samples; western blot): downregulated | total cell viability (HeLa cells [3]): did not drop below 50% until high concentrations | expression of OXPHOS and mitochondrial matrix genes [10]: decrease in the expression | Myc expression ([10]; verified by qPCR and western blot): decreased

Compound: O=C(Nc1ccc([N+](=O)[O-])cc1Cl)c1cc([N+](=O)[O-])ccc1O [Compound 9, N-(2-Chloro-4-nitrophenyl)-2-hydroxy-5-nitrobenzamide]
reduction of recombinant STAT3/DNA-binding relative to niclosamide [1]: means less than or equal to niclosamide

affinity for the SH2 domain (SH2 domain of STAT3 [5]): slight affinity for the SH2 domain
Compound: O=C(Nc1ccc([N+](=O)[O-])cc1Br)c1cc(Br)ccc1O [Compound 2, 5-Bromo-N-(2-bromo-4-nitrophenyl)-2-hydroxybenzamide]

reduction of recombinant STAT3/DNA-binding relative to niclosamide [1]: performed worse than niclosamide | mean value, % of STAT3 only control [1]: 76%
Compound: O=C(Oc1ccc([N+](=O)[O-])cc1Cl)c1cc(Cl)ccc1O [Compound 4, 2-Chloro-4-nitrophenyl 5-chloro-2-hydroxybenzoate]

affinity for the SH2 domain (SH2 domain of STAT3 [5]): slight affinity for the SH2 domain
Compound: O=C(Nc1ccc([N+](=O)[O-])cc1Cl)c1cc(Cl)c(-c2ccccc2)cc1O [Compound 14, 2-Chloro-N-(2-chloro-4-nitrophenyl)-5-hydroxy-[1,1′-biphenyl]-4-carboxamide]
